Experimental data reported in patent US20240116864A1, “XANTHOPHYLL DERIVATIVES” (priority 2020, published 2024).

Test system: Caco-2 cell homogenates
Test: Conversion of prodrug to parent compound (astaxanthin) in frozen/thawed unviable Caco-2 cell homogenates
Type: in vitro ADME
From the text: Formation of astaxanthin in resuspended Caco-2 cells previously frozen.
Human carboxylesterase 1 (hCE-1) and carboxylesterase 2 (hCE-2) are serine esterases involved in both drug metabolism and activation of prodrugs. The expression pattern of human carboxylesterase in Caco-2 (human colon adenocarcinoma) cell line is similar to human […] that expresses a much higher level of hCE-1 and lower level of hCE-2 (Drug Metab. Pharmacokinet. 21 (3): 173-185 (2006)).
Therefore, the formation of astaxanthin from compounds CCXX, CCXXI, CCXXII and CCXXVI was tested with Caco-2 cells that were frozen at −80° C. and thawed before testing. The freezing/thawing process without cryopreservants compromised the integrity of the membrane, as confirmed by positive staining of the dead cells with a dye exclusion method using trypan blue. Dead cells are not selective to compounds passing through the compromised membrane, eliminating the transport and permeation barriers to access the cell content and metabolic enzymes including the carboxylesterases.
The Caco-2 (colorectal adenocarcinoma) cellular line was obtained from Cordoba Cell Bank (CCB, CIQUIBIC, Cordoba, Argentina), #ATCC Passage: 18. #CCB Passage: 4. Culture conditions: Low Glucose DMEM (1 g/L)+Penicillin-Streptomycin+20% Fetal Bovine Serum (SFB). Cells were cultured in a 37° C. incubator with 5% CO2 on cell culture dishes. Once they reached confluence, cells were washed twice with Phosphate-buffered saline (PBS) and lifted after trypsinization. For trypsinization, 1 mL of trypsin was added, incubated for a few minutes in the 37° C. incubator, neutralized with supplemented culture medium and cells were collected in 15 mL tubes (Falcon). The tubes were centrifuged for 5 min at 1000 rpm, the supernatant was removed, and the cells were resuspended in supplemented medium. To determine the amount of viable (living) cells, a ½ dilution with trypan blue dye was made and counted in an automatic cell counter (more than 90% of live cells were measured). Finally, the tubes were centrifuged again, and cells were resuspended at a concentration of 5 million/mL in non-supplemented DMEM and placed in a −80° C. freezer. To determine the amount of non-viable cells after freezing and thawing, a ½ dilution with trypan blue dye was made and they were counted in an automatic cell counter and the dead cells were above 95%. Pools of unviable (“leaking”) cell homogenates were subsequently used for incubations with the compounds of interest.
A 1 mL frozen aliquot containing 5 million/mL of unviable Caco-2 cells was thawed and warmed at 37° C. A 0.010 mL aliquot of a stock solution of the compound in DMSO (2.5 mM) was added to the cells and incubated at 37 ° C. At selected timepoints, a 0.2 mL aliquot was removed and mixed with 0.5 mL of methanol containing retinyl acetate (0.011 mM) as an internal standard. The methanolic mixture was vigorously vortexed and 1 mL of chloroform was added to extract unreacted compound, astaxanthin and related compounds as well as the internal standard. After vigorous vortexing, the mixture was centrifuged at 8000 rpm for 10 min at 4° C. The chloroform phase was removed and dried under nitrogen flow. 1 mL of the sample solvent (THF/acetonitrile with 1% Formic acid) was added to the residue, mixed vigorously and filtered through a PVDF 0.22 um filter in a HPLC vial. The filtrate was stored in the autosampler at 5° C. and injected in the HPLC to measure the amount of internal standard, unreacted compound, free astaxanthin and its related compounds. The HPLC equipment was a UHPLC Nexera XR (Shimadzu)/PDA SPD-M3OA (Shimadzu) with a Shimpack GIST C18 100×2.1 mm, 2 um column at 40° C. Two HPLC methods were used, gradient and isocratic depending on the prodrug. Gradient method: flow 0.2 mL/m, mobile phase A (MPA): water with formic acid 0.1%, mobile phase B (MPB): acetonitrile with formic acid 0.1%, gradient: time 0 m 60/40, 2.5 m 10/90, 10.4 m 10/90. UV(PDA) detector 380 and 325 nm (for retinyl acetate). […]

[1] = unviable Caco-2 cells 5 million/mL, 37 °C, HPLC

Row | SMILES | Conversion efficiency to trans-astaxanthin (comparison between compounds) [1] | Conversion to trans-astaxanthin [1] | Conversion to astaxanthin monoester (Caco-2) | Stability over the same time frame (Caco-2)
1 | CC1=C(/C=C/C(C)=C/C=C/C(C)=C/C=C/C=C(C)/C=C/C=C(C)/C=C/C2=C(C)C(=O)[C@@H](OC(=O)CNC(=O)c3cccnc3)CC2(C)C)C(C)(C)C[C@H](OC(=O)CNC(=O)c2cccnc2)C1=O [CCXX, (all-E)-3S,3′S-Astaxanthin-di-N-nicotinoglycinate] | higher conversion efficiency to trans-astaxanthin than CCXXI and CCXXII | observed |  | 
2 | CC1=C(/C=C/C(C)=C/C=C/C(C)=C/C=C/C=C(C)/C=C/C=C(C)/C=C/C2=C(C)C(=O)[C@@H](OC(=O)CCNC(=O)c3cccnc3)CC2(C)C)C(C)(C)C[C@H](OC(=O)CCNC(=O)c2cccnc2)C1=O [CCXXI, (all-E)-3S,3′S-astaxanthin-di-N-nicotinoyl-β-alaninate] |  | observed |  | 
3 | CC1=C(/C=C/C(C)=C/C=C/C(C)=C/C=C/C=C(C)/C=C/C=C(C)/C=C/C2=C(C)C(=O)[C@@H](OC(=O)[C@@H](C)NC(=O)c3cccnc3)CC2(C)C)C(C)(C)C[C@H](OC(=O)[C@H](C)NC(=O)c2cccnc2)C1=O [CCXXII] |  | observed |  | 
4 | CC1=C(/C=C/C(C)=C/C=C/C(C)=C/C=C/C=C(C)/C=C/C=C(C)/C=C/C2=C(C)C(=O)[C@@H](OC(=O)[C@H](NC(=O)c3cccnc3)C(C)C)CC2(C)C)C(C)(C)C[C@H](OC(=O)[C@@H](NC(=O)c2cccnc2)C(C)C)C1=O [CCXXVI] |  |  | only a small amount | stable
